# Measured values reported in patent publication US20220117938A1, “COMBINATON THERAPY WITH A DON PRODRUG AND AN IMMUNE CHECKPOINT INHIBITOR” (DRACEN PHARMACEUTICALS, INC., priority 2019, published 2022).
# Legend:
# A549 tumors = assay: Anti-tumor efficacy of Compound 1 in the A549 xenograft model (Example 11); assay type: in vivo, mice
# Description: Female BALB/c nude mice were inoculated subcutaneously in the right flank with A549 cells for tumor development. Eight days after tumor inoculation, mice with tumor sizes ranging from 100-200 mm^3 (average tumor size 156 mm^3) were selected and assigned into groups using stratified randomization with 8 mice per group based upon their tumor volumes. The treatments were started from the day of randomization (defined as D0), Group 1 was treated with Vehicle control, 10 ml/kg, IP, bid×21; Group 4 was treated with Compound 1; 1.4 mg/kg, SC, 5d ON, 2 d OFF×3 cycles; and Group 5 was treated with Compound 1, 3.3 mg/kg, IV, tiw, (Fri, Sun, Tues), ×3 cycles. The tumor sizes were measured two times per week during the treatment. The entire study was terminated on D21 after start of the treatment. All treatments were well-tolerated without any adverse effects or significant body weight loss.
# 4T1 tumors = assay: Anti-tumor efficacy of Compound 1 with and without anti-PD-1 in the 4T1 murine mammary cancer model (Example 2A); assay type: in vivo, Mus musculus; settings: for Tumor volume (mm^3), Mean ± SEM: n = 8; for ILS (%) / MST: endpoint tumor volume 2000 mm^3; for RTV at day 25 / T/C (%) / TGI (%) / Tumor Size (mm^3) at day 25, Mean ± SEM: day 25
# Description: Female BALB/c mice were inoculated subcutaneously at the mammary fat pat with 4T1 cells for tumor development. Six days after tumor inoculation, 48 mice with tumor size ranging from 49-88 mm^3 (average tumor size 59 mm^3) were selected and assigned into 6 groups using stratified randomization with 8 mice per group based upon their tumor volumes. The treatments were started from the day of randomization (defined as D0), Group 1 was treated with Vehicle (Tween 80:Ethanol:Saline—5:5:90 v/v/v), s.c. q.d.×14, Group 2 was treated with anti-PD-1 10 mg/kg i.p. q4d×4, Group 3 was treated with Compound 1 3 mg/kg s.c. q.d.×5D followed by 1 mg/kg s.c. q.d.×9D, Group 4 was treated with Compound 13 mg/kg s.c. q.d.×5D followed by 1 mg/kg s.c. q.d.×9D+anti-PD-1 10 mg/kg i.p. q4d×4, Group 5 was treated with Compound 11 mg/kg s.c. q.d.×14D and Group 6 was treated with Compound 11 mg/kg s.c. q.d.×14D+anti-PD-1 10 mg/kg i.p. q4d×4. The tumor sizes were measured three times per week during the treatment. The entire study was terminated on D42 after start of the treatment. In this study anti mPD-1 (catalog number BE0146) was used.
# Animal Species: Mus musculus; Strain: BALB/c; Age: 6-8 weeks; Sex: female; Body weight (at treatment start): 20-24 g.
# The 4T1 tumor cells were maintained in vitro as a monolayer culture in RPMI-1640 medium supplemented with 10% heat inactivated fetal bovine serum and 100 μg/mL penicillin streptomycin at 37° C. in an atmosphere of 5% CO2 in air. The tumor cells were routinely subcultured twice weekly by trypsin-EDTA treatment. The cells growing to a confluency around 70%-80% were harvested and counted for tumor inoculation. The cultured 4T1 cells were harvested, re-suspended in base medium at a density of 2×10^6 cells/mL with viability >90%. Each mouse was inoculated subcutaneously at the […] with 1×10^5 in 0.05 ml base medium for tumor development.
# The treatments were started on day 6 after tumor inoculation when the tumor size reached 49-88 mm^3 (average tumor size 59 mm^3). Each group consisted of 8 tumor bearing mice. The testing article was administrated at the dosing volume indicated to the mice according to the predetermined regimen as shown Table 2A-1. Testing article formulations were prepared according to standard procedures. Details regarding tumor measurements and endpoints, and statistical analysis are provided in EXAMPLE 3.
# Tumor sizes were measured three times a week in two dimensions using a caliper, and the volume expressed in mm^3 using the formula: V=0.5 a×b^2 where a and b are the long and short diameters of the tumor, respectively. The tumor sizes were then used for the calculations of both tumor growth inhibition (TGI) and T/C values.
# TGI is calculated for each group using the formula: […]
# TVTreatment_DayN is the average tumor volume of a treatment group on a given day, TVTreatment_Day0 is the average tumor volume of the treatment group on the first day of treatment, TVVehicle_DayN is the average tumor volume of the vehicle control group on a given day, and TVVehicle_Day0 is the average tumor volume of the vehicle group on the first day of treatment.
# The T/C value (in percent) is an indication of antitumor effectiveness, T/C (%)=RTVTreatment/RTVControl×100% (RTVTreatment: the mean RTV of the treatment group; RTVControl: the mean RTV of the vehicle treated group). RTV (relative tumor volume)=TVDayN/TVDay0. TVDayN and TVDay0 is the tumor volume on day N and Day 0 respectively. T/C (%)≤42% is considered as significant antitumor activity and <10% is considered as highly significant antitumor activity by the National Cancer Institute criteria.
# Animal survival curve: When an individual animal reached to the termination endpoint (TV>2000 mm^3), the mouse was euthanized. The time from treatment initiation to the termination was deemed as its survival time. Survival curve was plotted by Kaplan-Meier method. Median survival time (MST) was calculated for each group. […]
# [1] = Group 4, 1.4 mg/kg SC 5 d ON 2 d OFF x3 cycles
# [2] = Group 4, 1.4 mg/kg SC 5 d ON 2 d OFF x3 cycles, day 21
# [3] = Group 5, 3.3 mg/kg IV tiw x3 cycles
# [4] = Group 5, 3.3 mg/kg IV tiw x3 cycles, day 21
compound,measurement,setting,value
"CC(=O)N[C@@H](Cc1c[nH]c2ccccc12)C(=O)N[C@@H](CCC(=O)C=[N+]=[N-])C(=O)OC(C)C [Compound 1, Isopropyl (S)-2-((S)-2-acetamido-3-(1H-indol-3-yl)propanamido)-6-diazo-5-oxohexanoate]",RTV at day 21,A549 tumors; [1],8.61 ± 1.30
same,Tumor Size at day 21,A549 tumors; [1],1300 ± 161 mm^3
same,Tumor volume,"A549 tumors; Group 4, 1.4 mg/kg SC 5 d ON 2 d OFF x3 cycles, day 0",155 ± 10 mm^3
same,Tumor volume,"A549 tumors; Group 4, 1.4 mg/kg SC 5 d ON 2 d OFF x3 cycles, day 4",187 ± 12 mm^3
same,Tumor volume,"A549 tumors; Group 4, 1.4 mg/kg SC 5 d ON 2 d OFF x3 cycles, day 7",273 ± 25 mm^3
same,Tumor volume,"A549 tumors; Group 4, 1.4 mg/kg SC 5 d ON 2 d OFF x3 cycles, day 11",500 ± 59 mm^3
same,Tumor volume,"A549 tumors; Group 4, 1.4 mg/kg SC 5 d ON 2 d OFF x3 cycles, day 14",658 ± 92 mm^3
same,Tumor volume,"A549 tumors; Group 4, 1.4 mg/kg SC 5 d ON 2 d OFF x3 cycles, day 18",1050 ± 112 mm^3
same,T/C,A549 tumors; [2],75.88%
same,TGI,A549 tumors; [2],28.57%
same,Tumor volume,A549 tumors; [2],1300 ± 161 mm^3
same,RTV at day 21,A549 tumors; [3],9.55 ± 1.16
same,Tumor Size at day 21,A549 tumors; [3],1453 ± 171 mm^3
same,Tumor volume,"A549 tumors; Group 5, 3.3 mg/kg IV tiw x3 cycles, day 0",156 ± 10 mm^3
same,Tumor volume,"A549 tumors; Group 5, 3.3 mg/kg IV tiw x3 cycles, day 4",180 ± 12 mm^3
same,Tumor volume,"A549 tumors; Group 5, 3.3 mg/kg IV tiw x3 cycles, day 7",268 ± 21 mm^3
same,Tumor volume,"A549 tumors; Group 5, 3.3 mg/kg IV tiw x3 cycles, day 11",473 ± 39 mm^3
same,Tumor volume,"A549 tumors; Group 5, 3.3 mg/kg IV tiw x3 cycles, day 14",647 ± 66 mm^3
same,Tumor volume,"A549 tumors; Group 5, 3.3 mg/kg IV tiw x3 cycles, day 18",1107 ± 119 mm^3
same,T/C,A549 tumors; [4],84.12%
same,TGI,A549 tumors; [4],19.04%
same,Tumor volume,A549 tumors; [4],1453 ± 171 mm^3
same,"Tumor volume (mm^3), Mean ± SEM","4T1 tumors; 1 mg/kg qdx14 s.c., Day 0",58 ± 3 mm^3
same,"Tumor volume (mm^3), Mean ± SEM","4T1 tumors; 1 mg/kg qdx14 s.c., Day 2",75 ± 4 mm^3
same,"Tumor volume (mm^3), Mean ± SEM","4T1 tumors; 1 mg/kg qdx14 s.c., Day 4",85 ± 4 mm^3
same,"Tumor volume (mm^3), Mean ± SEM","4T1 tumors; 1 mg/kg qdx14 s.c., Day 7",108 ± 4 mm^3
same,"Tumor volume (mm^3), Mean ± SEM","4T1 tumors; 1 mg/kg qdx14 s.c., Day 9",130 ± 10 mm^3
same,"Tumor volume (mm^3), Mean ± SEM","4T1 tumors; 1 mg/kg qdx14 s.c., Day 11",158 ± 12 mm^3
same,"Tumor volume (mm^3), Mean ± SEM","4T1 tumors; 1 mg/kg qdx14 s.c., Day 14",172 ± 11 mm^3
same,"Tumor volume (mm^3), Mean ± SEM","4T1 tumors; 1 mg/kg qdx14 s.c., Day 16",215 ± 17 mm^3
same,"Tumor volume (mm^3), Mean ± SEM","4T1 tumors; 1 mg/kg qdx14 s.c., Day 18",300 ± 23 mm^3
same,"Tumor volume (mm^3), Mean ± SEM","4T1 tumors; 1 mg/kg qdx14 s.c., Day 21",441 ± 31 mm^3
same,"Tumor volume (mm^3), Mean ± SEM","4T1 tumors; 1 mg/kg qdx14 s.c., Day 23",622 ± 44 mm^3
same,"Tumor volume (mm^3), Mean ± SEM","4T1 tumors; 1 mg/kg qdx14 s.c., Day 25",782 ± 53 mm^3
same,"Tumor volume (mm^3), Mean ± SEM","4T1 tumors; 3 mg/kg qdx5 then 1 mg/kg qdx9 s.c., Day 0",59 ± 3 mm^3
same,"Tumor volume (mm^3), Mean ± SEM","4T1 tumors; 3 mg/kg qdx5 then 1 mg/kg qdx9 s.c., Day 2",72 ± 4 mm^3
same,"Tumor volume (mm^3), Mean ± SEM","4T1 tumors; 3 mg/kg qdx5 then 1 mg/kg qdx9 s.c., Day 4",76 ± 3 mm^3
same,"Tumor volume (mm^3), Mean ± SEM","4T1 tumors; 3 mg/kg qdx5 then 1 mg/kg qdx9 s.c., Day 7",80 ± 3 mm^3
same,"Tumor volume (mm^3), Mean ± SEM","4T1 tumors; 3 mg/kg qdx5 then 1 mg/kg qdx9 s.c., Day 9",88 ± 6 mm^3
same,"Tumor volume (mm^3), Mean ± SEM","4T1 tumors; 3 mg/kg qdx5 then 1 mg/kg qdx9 s.c., Day 11",113 ± 9 mm^3
same,"Tumor volume (mm^3), Mean ± SEM","4T1 tumors; 3 mg/kg qdx5 then 1 mg/kg qdx9 s.c., Day 14",171 ± 12 mm^3
same,"Tumor volume (mm^3), Mean ± SEM","4T1 tumors; 3 mg/kg qdx5 then 1 mg/kg qdx9 s.c., Day 16",245 ± 17 mm^3
same,"Tumor volume (mm^3), Mean ± SEM","4T1 tumors; 3 mg/kg qdx5 then 1 mg/kg qdx9 s.c., Day 18",356 ± 27 mm^3
same,"Tumor volume (mm^3), Mean ± SEM","4T1 tumors; 3 mg/kg qdx5 then 1 mg/kg qdx9 s.c., Day 21",565 ± 37 mm^3
same,"Tumor volume (mm^3), Mean ± SEM","4T1 tumors; 3 mg/kg qdx5 then 1 mg/kg qdx9 s.c., Day 23",762 ± 62 mm^3
same,"Tumor volume (mm^3), Mean ± SEM","4T1 tumors; 3 mg/kg qdx5 then 1 mg/kg qdx9 s.c., Day 25",1024 ± 75 mm^3
same,ILS (%),4T1 tumors; Compound 1 1 mg/kg,13.8%
same,MST,4T1 tumors; Compound 1 1 mg/kg,33.0 days
same,ILS (%),4T1 tumors; Compound 1 3/1 mg/kg,19.0%
same,MST,4T1 tumors; Compound 1 3/1 mg/kg,34.5 days
same,RTV at day 25,4T1 tumors; Cpd. 1 1 mg/kg,13.65 ± 1.13
same,T/C (%),4T1 tumors; Cpd. 1 1 mg/kg,46.10%
same,TGI (%),4T1 tumors; Cpd. 1 1 mg/kg,53.9%
same,"Tumor Size (mm^3) at day 25, Mean ± SEM",4T1 tumors; Cpd. 1 1 mg/kg,782 ± 53 mm^3
same,RTV at day 25,4T1 tumors; Cpd. 1 3/1 mg/kg,17.45 ± 0.83
same,T/C (%),4T1 tumors; Cpd. 1 3/1 mg/kg,58.95%
same,TGI (%),4T1 tumors; Cpd. 1 3/1 mg/kg,41.05%
same,"Tumor Size (mm^3) at day 25, Mean ± SEM",4T1 tumors; Cpd. 1 3/1 mg/kg,1024 ± 75 mm^3
